# Test results published in PubChem BioAssay (NCI).
#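 Method: 48-hour compound exposure of cells in 96-well plates, five concentrations, linear interpolation of endpoints. TGI is the concentration that stops growth completely.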
# Tests used:
# Experiment in all cases: inhibition of tumour cell growth, NCI panel, 48 h
# 786-0 renal = system: 786-0 renal
# A498 renal = system: A498 renal
# A549 NSCLC = system: A549 NSCLC
# ACHN renal = system: ACHN renal
# CAKI-1 renal = system: CAKI-1 renal
# CCRF-CEM leukemia = system: CCRF-CEM leukemia
# COLO 205 colon = system: COLO 205 colon
# DLD-1 colon = system: DLD-1 colon
# DMS 114 small cell lung = system: DMS 114 small cell lung
# DMS 273 small cell lung = system: DMS 273 small cell lung
# EKVX NSCLC = system: EKVX NSCLC
# HCC-2998 colon = system: HCC-2998 colon
# HCT-116 colon = system: HCT-116 colon
# HCT-15 colon = system: HCT-15 colon
# HL-60(TB) leukemia = system: HL-60(TB) leukemia
# HOP-18 NSCLC = system: HOP-18 NSCLC
# HOP-62 NSCLC = system: HOP-62 NSCLC
# HOP-92 NSCLC = system: HOP-92 NSCLC
# HT29 colon = system: HT29 colon
# IGROV1 ovarian = system: IGROV1 ovarian
# K-562 leukemia = system: K-562 leukemia
# KM12 colon = system: KM12 colon
# KM20L2 colon = system: KM20L2 colon
# LOX IMVI melanoma = system: LOX IMVI melanoma
# LXFL 529 NSCLC = system: LXFL 529 NSCLC
# M14 melanoma = system: M14 melanoma
# M19-MEL melanoma = system: M19-MEL melanoma
# MALME-3M melanoma = system: MALME-3M melanoma
# MOLT-4 leukemia = system: MOLT-4 leukemia
# NCI-H23 lung = system: NCI-H23 lung
# NCI-H460 lung = system: NCI-H460 lung
# NCI-H522 lung = system: NCI-H522 lung
# OVCAR-3 ovarian = system: OVCAR-3 ovarian
# OVCAR-4 ovarian = system: OVCAR-4 ovarian
# OVCAR-5 ovarian = system: OVCAR-5 ovarian
# OVCAR-8 ovarian = system: OVCAR-8 ovarian
# SF-268 CNS = system: SF-268 CNS
# SF-295 CNS = system: SF-295 CNS
# SF-539 CNS = system: SF-539 CNS
# SK-MEL-2 melanoma = system: SK-MEL-2 melanoma
# SK-MEL-28 melanoma = system: SK-MEL-28 melanoma
# SK-MEL-5 melanoma = system: SK-MEL-5 melanoma
# SK-OV-3 ovarian = system: SK-OV-3 ovarian
# SN12C renal = system: SN12C renal
# SNB-19 CNS = system: SNB-19 CNS
# SNB-75 CNS = system: SNB-75 CNS
# SNB-78 CNS = system: SNB-78 CNS
# SR leukemia = system: SR leukemia
# SW-620 colon = system: SW-620 colon
# TK-10 renal = system: TK-10 renal
# U251 CNS = system: U251 CNS
# UACC-257 melanoma = system: UACC-257 melanoma
# UACC-62 melanoma = system: UACC-62 melanoma
# UO-31 renal = system: UO-31 renal
# XF 498 CNS = system: XF 498 CNS
# NCI-H226 lung = system: NCI-H226 lung
# RPMI-8226 leukemia = system: RPMI-8226 leukemia
# RXF 393 renal = system: RXF 393 renal
# RXF-631 renal = system: RXF-631 renal
smiles,measurement,setting,value
COc1ccc(/C=C/C(=O)C(C)C)cc1,TGI,786-0 renal,> 100 µM
same,TGI,A498 renal,> 100 µM
same,TGI,A549 NSCLC,> 100 µM
same,TGI,ACHN renal,> 100 µM
same,TGI,CAKI-1 renal,> 100 µM
same,TGI,CCRF-CEM leukemia,> 100 µM
same,TGI,COLO 205 colon,> 100 µM
same,TGI,DLD-1 colon,> 100 µM
same,TGI,DMS 114 small cell lung,43 µM
same,TGI,DMS 273 small cell lung,> 100 µM
same,TGI,EKVX NSCLC,> 100 µM
same,TGI,HCC-2998 colon,> 100 µM
same,TGI,HCT-116 colon,> 100 µM
same,TGI,HCT-15 colon,> 100 µM
same,TGI,HL-60(TB) leukemia,59.2 µM
same,TGI,HOP-18 NSCLC,> 100 µM
same,TGI,HOP-62 NSCLC,> 100 µM
same,TGI,HOP-92 NSCLC,> 100 µM
same,TGI,HT29 colon,79.6 µM
same,TGI,IGROV1 ovarian,> 100 µM
same,TGI,K-562 leukemia,> 100 µM
same,TGI,KM12 colon,98 µM
same,TGI,KM20L2 colon,64.3 µM
same,TGI,LOX IMVI melanoma,> 100 µM
same,TGI,LXFL 529 NSCLC,54.9 µM
same,TGI,M14 melanoma,> 100 µM
same,TGI,M19-MEL melanoma,> 100 µM
same,TGI,MALME-3M melanoma,> 100 µM
same,TGI,MOLT-4 leukemia,> 100 µM
same,TGI,NCI-H23 lung,> 100 µM
same,TGI,NCI-H460 lung,> 100 µM
same,TGI,NCI-H522 lung,41.7 µM
same,TGI,OVCAR-3 ovarian,61.4 µM
same,TGI,OVCAR-4 ovarian,> 100 µM
same,TGI,OVCAR-5 ovarian,> 100 µM
same,TGI,OVCAR-8 ovarian,> 100 µM
same,TGI,SF-268 CNS,> 100 µM
same,TGI,SF-295 CNS,> 100 µM
same,TGI,SF-539 CNS,> 100 µM
same,TGI,SK-MEL-2 melanoma,73.8 µM
same,TGI,SK-MEL-28 melanoma,> 100 µM
same,TGI,SK-MEL-5 melanoma,> 100 µM
same,TGI,SK-OV-3 ovarian,90.6 µM
same,TGI,SN12C renal,> 100 µM
same,TGI,SNB-19 CNS,> 100 µM
same,TGI,SNB-75 CNS,> 100 µM
same,TGI,SNB-78 CNS,46.7 µM
same,TGI,SR leukemia,> 100 µM
same,TGI,SW-620 colon,> 100 µM
same,TGI,TK-10 renal,> 100 µM
same,TGI,U251 CNS,> 100 µM
same,TGI,UACC-257 melanoma,> 100 µM
same,TGI,UACC-62 melanoma,> 100 µM
same,TGI,UO-31 renal,> 100 µM
same,TGI,XF 498 CNS,> 100 µM
CC1CC(c2ccc(Cl)cc2)=Nc2ccccc2S1 (centres undefined),TGI,786-0 renal,> 100 µM
same,TGI,A498 renal,> 100 µM
same,TGI,A549 NSCLC,> 100 µM
same,TGI,ACHN renal,> 100 µM
same,TGI,CCRF-CEM leukemia,> 100 µM
same,TGI,COLO 205 colon,> 100 µM
same,TGI,DLD-1 colon,> 100 µM
same,TGI,DMS 114 small cell lung,> 100 µM
same,TGI,EKVX NSCLC,> 100 µM
same,TGI,HCC-2998 colon,> 100 µM
same,TGI,HCT-116 colon,> 100 µM
same,TGI,HCT-15 colon,> 100 µM
same,TGI,HL-60(TB) leukemia,> 100 µM
same,TGI,HOP-62 NSCLC,> 100 µM
same,TGI,HT29 colon,> 100 µM
same,TGI,IGROV1 ovarian,> 100 µM
same,TGI,K-562 leukemia,> 100 µM
same,TGI,KM12 colon,> 100 µM
same,TGI,KM20L2 colon,> 100 µM
same,TGI,LXFL 529 NSCLC,> 100 µM
same,TGI,M14 melanoma,> 100 µM
same,TGI,M19-MEL melanoma,> 100 µM
same,TGI,MALME-3M melanoma,> 100 µM
same,TGI,MOLT-4 leukemia,> 100 µM
same,TGI,NCI-H226 lung,> 100 µM
same,TGI,NCI-H23 lung,> 100 µM
same,TGI,NCI-H460 lung,> 100 µM
same,TGI,NCI-H522 lung,> 100 µM
same,TGI,OVCAR-3 ovarian,> 100 µM
same,TGI,OVCAR-4 ovarian,> 100 µM
same,TGI,OVCAR-5 ovarian,> 100 µM
same,TGI,OVCAR-8 ovarian,> 100 µM
same,TGI,RPMI-8226 leukemia,> 100 µM
same,TGI,RXF 393 renal,> 100 µM
same,TGI,RXF-631 renal,> 100 µM
same,TGI,SF-268 CNS,> 100 µM
same,TGI,SF-295 CNS,> 100 µM
same,TGI,SF-539 CNS,> 100 µM
same,TGI,SK-MEL-2 melanoma,> 100 µM
same,TGI,SK-MEL-28 melanoma,> 100 µM
same,TGI,SK-OV-3 ovarian,> 100 µM
same,TGI,SN12C renal,> 100 µM
same,TGI,SNB-19 CNS,> 100 µM
same,TGI,SNB-75 CNS,> 100 µM
same,TGI,SNB-78 CNS,> 100 µM
same,TGI,SR leukemia,> 100 µM
same,TGI,SW-620 colon,> 100 µM
same,TGI,TK-10 renal,> 100 µM
same,TGI,U251 CNS,> 100 µM
same,TGI,UACC-257 melanoma,> 100 µM
same,TGI,UACC-62 melanoma,> 100 µM
same,TGI,UO-31 renal,> 100 µM
CN(C)C=C1C(=O)N(C)C(=O)N(C)C1=O,TGI,786-0 renal,> 100 µM
same,TGI,A498 renal,> 100 µM
same,TGI,A549 NSCLC,> 100 µM
same,TGI,ACHN renal,> 100 µM
same,TGI,CAKI-1 renal,> 100 µM
same,TGI,CCRF-CEM leukemia,> 100 µM
same,TGI,DLD-1 colon,> 100 µM
same,TGI,DMS 114 small cell lung,> 100 µM
same,TGI,DMS 273 small cell lung,> 100 µM
same,TGI,EKVX NSCLC,> 100 µM
same,TGI,HCC-2998 colon,> 100 µM
same,TGI,HCT-116 colon,> 100 µM
same,TGI,HCT-15 colon,> 100 µM
same,TGI,HL-60(TB) leukemia,> 100 µM
same,TGI,HOP-18 NSCLC,> 100 µM
same,TGI,HOP-92 NSCLC,> 100 µM
same,TGI,HT29 colon,> 100 µM
same,TGI,K-562 leukemia,> 100 µM
same,TGI,KM12 colon,> 100 µM
same,TGI,KM20L2 colon,> 100 µM
same,TGI,LOX IMVI melanoma,> 100 µM
same,TGI,LXFL 529 NSCLC,> 100 µM
same,TGI,M14 melanoma,> 100 µM
same,TGI,M19-MEL melanoma,> 100 µM
same,TGI,MALME-3M melanoma,> 100 µM
same,TGI,MOLT-4 leukemia,> 100 µM
same,TGI,NCI-H226 lung,> 100 µM
same,TGI,NCI-H23 lung,> 100 µM
same,TGI,NCI-H460 lung,> 100 µM
same,TGI,OVCAR-3 ovarian,> 100 µM
same,TGI,OVCAR-4 ovarian,> 100 µM
same,TGI,OVCAR-5 ovarian,> 100 µM
same,TGI,OVCAR-8 ovarian,> 100 µM
same,TGI,RPMI-8226 leukemia,> 100 µM
same,TGI,RXF 393 renal,> 100 µM
same,TGI,SF-295 CNS,> 100 µM
same,TGI,SF-539 CNS,> 100 µM
same,TGI,SK-MEL-2 melanoma,> 100 µM
same,TGI,SK-MEL-28 melanoma,> 100 µM
same,TGI,SK-MEL-5 melanoma,> 100 µM
same,TGI,SN12C renal,> 100 µM
same,TGI,SNB-19 CNS,> 100 µM
same,TGI,SNB-75 CNS,> 100 µM
same,TGI,SNB-78 CNS,> 100 µM
same,TGI,SR leukemia,> 100 µM
same,TGI,SW-620 colon,> 100 µM
same,TGI,TK-10 renal,> 100 µM
same,TGI,U251 CNS,> 100 µM
same,TGI,UACC-257 melanoma,> 100 µM
same,TGI,UACC-62 melanoma,> 100 µM
same,TGI,UO-31 renal,> 100 µM
same,TGI,XF 498 CNS,> 100 µM
